Laboratory results taken from PubChem BioAssay AID2060627 (Molecular Pharmacology Branch, DTP, NCI, 2025).

System: 156681-154-R-J1-PDC complex spheroid viability
Experiment: Anticancer human tumor 156681-154-R-J1-PDC patient-derived melanoma cell line growth inhibition [CLK]
Settings: for IC50: curve of first compound; for viability, T/C: stronger effect = lower value; active = viability on the fitted dose curve at most 10% of control; inactive = the rest
Outline: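 Multi-cell-type spheroids combined patient-derived tumor cells with HUVEC endothelial cells and human mesenchymal stem cells. Paired agents were dosed in half-log steps down from about clinical Cmax, or from 10 microM where Cmax was unknown.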

[1] = second compound 0.0316 µM, first compound 0.0316 µM
[2] = second compound 0.0316 µM, first compound 0.1 µM
[3] = second compound 0.0316 µM, first compound 0.316 µM
[4] = second compound 0.0316 µM, first compound 1 µM
[5] = second compound 0.0316 µM, first compound 3.16 µM
[6] = second compound 0.0316 µM, first compound 10 µM
[7] = second compound 0.1 µM, first compound 0.0316 µM
[8] = second compound 0.1 µM, first compound 0.1 µM
[9] = second compound 0.1 µM, first compound 0.316 µM
[10] = second compound 0.1 µM, first compound 1 µM
[11] = second compound 0.1 µM, first compound 3.16 µM
[12] = second compound 0.1 µM, first compound 10 µM
[13] = second compound 0.316 µM, first compound 0.0316 µM
[14] = second compound 0.316 µM, first compound 0.1 µM
[15] = second compound 0.316 µM, first compound 0.316 µM
[16] = second compound 0.316 µM, first compound 1 µM
[17] = second compound 0.316 µM, first compound 3.16 µM
[18] = second compound 0.316 µM, first compound 10 µM
[19] = second compound 1 µM, first compound 0.0316 µM
[20] = second compound 1 µM, first compound 0.1 µM
[21] = second compound 1 µM, first compound 0.316 µM
[22] = second compound 1 µM, first compound 1 µM
[23] = second compound 1 µM, first compound 3.16 µM
[24] = second compound 1 µM, first compound 10 µM
[25] = second compound 3.16 µM, first compound 0.0316 µM
[26] = second compound 3.16 µM, first compound 0.1 µM
[27] = second compound 3.16 µM, first compound 0.316 µM
[28] = second compound 3.16 µM, first compound 1 µM
[29] = second compound 3.16 µM, first compound 3.16 µM
[30] = second compound 3.16 µM, first compound 10 µM
[31] = second compound 10 µM, first compound 0.0316 µM
[32] = second compound 10 µM, first compound 0.1 µM
[33] = second compound 10 µM, first compound 0.316 µM
[34] = second compound 10 µM, first compound 1 µM
[35] = second compound 10 µM, first compound 3.16 µM
[36] = second compound 10 µM, first compound 10 µM
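Note: spheroids exposed to the agents for seven days.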
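Throughout, for viability, T/C: 100% = DMSO vehicle control viability.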

COc1ccc([C@@H](O)c2cc(-c3ncnc4cc(N5CCOCC5)ccc34)c(F)cc2Cl)nn1 + CNC(=O)c1ccc(Nc2nc(OC3CCCC3)c3c(-c4ccc5nc(C)oc5c4)c[nH]c3n2)c(OC)c1
1100 nM: IC50 (second compound 0.316 µM)
1480 nM: IC50 (second compound 0.1 µM)
< 31.6 nM: IC50 (second compound 3.16 µM) | IC50 (second compound 10 µM)
1910 nM: IC50 (second compound 0.0316 µM)
inactive: viability, T/C [1] 80.7% | viability, T/C [2] 97.2% | viability, T/C [3] 87.8% | viability, T/C [4] 69.8% | viability, T/C [5] 34.6% | viability, T/C [6] 29% | viability, T/C [7] 44.7% | viability, T/C [8] 64.6% | viability, T/C [9] 52.2% | viability, T/C [10] 56.8% | viability, T/C [11] 41.2% | viability, T/C [12] 21.3% | viability, T/C [13] 59.5% | viability, T/C [14] 62% | viability, T/C [15] 50.9% | viability, T/C [16] 52.9% | viability, T/C [17] 28.4% | viability, T/C [18] 20.7% | viability, T/C [19] 50.8% | viability, T/C [20] 55.6% | viability, T/C [21] 47.7% | viability, T/C [22] 29.2% | viability, T/C [23] 32.8% | viability, T/C [24] 9.5% | viability, T/C [25] 46.8% | viability, T/C [26] 47.6% | viability, T/C [27] 37.1% | viability, T/C [28] 33.7% | viability, T/C [29] 29.7% | viability, T/C [31] 39.3% | viability, T/C [32] 30% | viability, T/C [33] 29.9% | viability, T/C [34] 28% | viability, T/C [35] 18.9%
active: viability, T/C [30] 5.99% | viability, T/C [36] 2.83%
116 nM: IC50 (second compound 1 µM)

COc1cccc2c1C(=O)c1c(O)c3c(c(O)c1C2=O)CC(O)(C(=O)CO)CC3OC1CC(N)C(O)C(C)O1 (centres undefined) + CNC(=O)c1ccc(Nc2nc(OC3CCCC3)c3c(-c4ccc5nc(C)oc5c4)c[nH]c3n2)c(OC)c1
inactive: viability, T/C [1] 28.9% | viability, T/C [2] 20.6% | viability, T/C [7] 27.2% | viability, T/C [8] 20% | viability, T/C [13] 30.7% | viability, T/C [14] 18.2% | viability, T/C [19] 18.9% | viability, T/C [25] 17.6% | viability, T/C [31] 16.3%
< 31.6 nM: IC50 (second compound 0.0316 µM) | IC50 (second compound 0.1 µM) | IC50 (second compound 0.316 µM) | IC50 (second compound 1 µM) | IC50 (second compound 3.16 µM) | IC50 (second compound 10 µM)
active: viability, T/C [3] 2.62% | viability, T/C [4] 0.17% | viability, T/C [5] 0.29% | viability, T/C [6] 2.75% | viability, T/C [9] 3.42% | viability, T/C [10] 0.17% | viability, T/C [11] 0.11% | viability, T/C [12] 0.1% | viability, T/C [15] 2.21% | viability, T/C [16] 0.13% | viability, T/C [17] 0.1% | viability, T/C [18] 0.32% | viability, T/C [20] 9.29% | viability, T/C [21] 1.41% | viability, T/C [22] 0.1% | viability, T/C [23] 1.2% | viability, T/C [24] 1.16% | viability, T/C [26] 6.96% | viability, T/C [27] 0.58% | viability, T/C [28] 0.12% | viability, T/C [29] 0.1% | viability, T/C [30] 0.08% | viability, T/C [32] 6.19% | viability, T/C [33] 2.01% | viability, T/C [34] 0.71% | viability, T/C [35] 0.12% | viability, T/C [36] 0.11%
